Laboratory results: patent publication US20180110762A1, “Compositions Methods for Treating Chronic Kidney Disease” (Merck Sharp & Dohme Corp, priority 2015, published 2018)

Experiments:
[1] = target: T1, Human recombinant integrin αvβ1 (Homo sapiens, UniProt P05556+P06756); test: Thermal shift assay (differential scanning fluorimetry), αvβ1; assay type: binding; conditions: αvβ1, 20 μM Compound A
T1 construct: purchased R&D Systems
Protocol: Differential scanning fluorimetry was performed on a LightCycler 480 II, real-time PCR instrument (Roche Diagnostics). Human recombinant integrins from R&D Systems (αvβ1, αvβ3 and α5β1) were reconstituted at a concentration of […] in assay buffer (20 mM HEPES, pH=7.3, 100 mM NaCl, 1 mM MgCl2, 1 mM MnCl2) and diluted in assay buffer with Sypro orange (SIGMA) to a final concentration of 400 nM integrin and 5× Sypro orange. A volume of 4.9 μL of this mixture of protein and dye was transferred to a 384-well plate and 100 nL of DMSO or Compound A, dissolved in DMSO, were added using an Echo 555 instrument (Labcyte). The final concentration of Compound A in the assay was 20 μM. After mixing, the assay plate was sealed, spun at 1,000×g for two minutes, and subsequently heated from 25 to 99° C. over the course of 31 min in the LightCycler 480 II instrument. Fluorescence intensity was measured using excitation/emission wavelengths of 465 and 580 nm, respectively. Changes in protein thermal stability (ΔTm) upon compound binding were analyzed by using LightCycler 480 (software provided by the manufacturer).

[2] = ZSF1 rat 28-week in-feed study: body weight, food and water intake; assay type: in vivo; conditions: obese ZSF1 rats
Protocol: The effects of Compound A (“A”) on renal function, plasma triglycerides, plasma cholesterol, kidney collagen I, kidney collagen III, renal histology, glomerular filtration rate, fibrosis score, and mRNA gene expression (profibrotic genes and integrin β3) were evaluated in male obese ZSF1 rats (a hybrid F1 of Zucker diabetic fatty rat and spontaneously hypertensive heart failure rat; a diabetic nephropathy model) when administered as in-feed for 28 weeks. Sixty obese male ZSF1 rats were randomized to five groups: Obese control (n=12), Compound A 60 mpk (n=12), Compound A 200 mpk (n=12), Compound A 400 mpk (n=12), Enalapril 10 mpk (n=12); Eight lean male ZSF1 rats were used for normal control. Renal functional changes were monitored by blood and urine analysis following in-feed dosing for 28 weeks. Compound exposure was also monitored during the study.

T1 sequence (P06756 31-992 limits assumed): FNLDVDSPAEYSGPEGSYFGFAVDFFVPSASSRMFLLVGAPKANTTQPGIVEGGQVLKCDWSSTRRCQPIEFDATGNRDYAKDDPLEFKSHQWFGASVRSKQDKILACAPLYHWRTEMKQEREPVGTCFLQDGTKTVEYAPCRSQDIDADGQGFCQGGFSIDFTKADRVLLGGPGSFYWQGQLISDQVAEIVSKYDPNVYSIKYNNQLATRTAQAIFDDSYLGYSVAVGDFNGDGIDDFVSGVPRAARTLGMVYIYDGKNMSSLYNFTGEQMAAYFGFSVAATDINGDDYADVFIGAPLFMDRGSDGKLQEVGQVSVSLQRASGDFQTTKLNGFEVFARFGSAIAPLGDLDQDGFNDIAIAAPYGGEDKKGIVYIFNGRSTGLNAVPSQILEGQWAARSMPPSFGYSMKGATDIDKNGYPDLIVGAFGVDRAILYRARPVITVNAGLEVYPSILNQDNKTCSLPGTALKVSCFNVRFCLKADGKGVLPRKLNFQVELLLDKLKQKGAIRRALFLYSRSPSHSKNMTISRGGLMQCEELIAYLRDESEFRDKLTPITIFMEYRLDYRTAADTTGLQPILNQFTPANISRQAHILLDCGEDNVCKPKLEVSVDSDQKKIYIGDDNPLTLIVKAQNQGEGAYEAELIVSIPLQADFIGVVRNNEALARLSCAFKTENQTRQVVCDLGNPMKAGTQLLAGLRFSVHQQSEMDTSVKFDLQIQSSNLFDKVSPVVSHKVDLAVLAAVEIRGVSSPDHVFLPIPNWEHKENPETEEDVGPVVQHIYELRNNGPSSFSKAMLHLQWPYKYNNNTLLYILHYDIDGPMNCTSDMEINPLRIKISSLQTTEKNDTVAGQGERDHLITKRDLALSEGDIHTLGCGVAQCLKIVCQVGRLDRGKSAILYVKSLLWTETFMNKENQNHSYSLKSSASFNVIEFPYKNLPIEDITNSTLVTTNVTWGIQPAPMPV
T1 sequence (P05556 21-728 limits assumed): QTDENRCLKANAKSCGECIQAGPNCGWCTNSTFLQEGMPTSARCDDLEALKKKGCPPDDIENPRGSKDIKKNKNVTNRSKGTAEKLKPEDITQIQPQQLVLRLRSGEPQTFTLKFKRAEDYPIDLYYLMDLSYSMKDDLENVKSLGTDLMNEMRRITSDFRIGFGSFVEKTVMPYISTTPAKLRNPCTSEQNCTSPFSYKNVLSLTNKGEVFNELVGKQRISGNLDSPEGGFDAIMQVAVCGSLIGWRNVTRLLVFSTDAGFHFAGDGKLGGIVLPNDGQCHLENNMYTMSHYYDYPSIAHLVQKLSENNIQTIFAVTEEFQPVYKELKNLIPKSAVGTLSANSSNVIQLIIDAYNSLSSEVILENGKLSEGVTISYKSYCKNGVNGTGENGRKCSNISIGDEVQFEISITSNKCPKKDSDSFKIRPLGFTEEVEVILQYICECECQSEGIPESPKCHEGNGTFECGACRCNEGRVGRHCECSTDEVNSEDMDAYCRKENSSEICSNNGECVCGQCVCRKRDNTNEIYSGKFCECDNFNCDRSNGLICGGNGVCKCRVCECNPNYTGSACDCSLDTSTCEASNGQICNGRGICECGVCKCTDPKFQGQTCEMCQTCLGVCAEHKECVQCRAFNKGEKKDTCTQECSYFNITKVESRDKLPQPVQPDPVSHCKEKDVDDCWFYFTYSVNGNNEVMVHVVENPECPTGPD

Q: What does the source list for `COc1ccc([C@H](CC(=O)O)N2CCN(CCCc3ccc4c(n3)NCCC4)C2=O)cn1` [Compound A, 3-{2-Oxo-3-[3-(5,6,7,8-tetrahydro-[1,8]naphthyridin-2-yl)-propyl]imidazolidin-1-yl}-3 (S)-(6-methoxy-pyridin-3-yl)-propionic acid]?
A: ΔTm at 20 µM ([1]; first of two experiments): 19.4 °C; ΔTm at 20 µM ([1]; second of two experiments): 15.6 °C; Body Weight ([2]; 60 mpk in-feed, week 1): 566.6 ± 7.3 grams; Food Intake ([2]; 60 mpk in-feed, week 1): 30.5 ± 1.2 grams/24 h; Water Intake ([2]; 60 mpk in-feed, week 1): 34.6 ± 3.4 mls/24 h; Body Weight ([2]; 60 mpk in-feed, week 2): 577.4 ± 7.2 grams; Food Intake ([2]; 60 mpk in-feed, week 2): 26.9 ± 1.0 grams/24 h; Water Intake ([2]; 60 mpk in-feed, week 2): 34.5 ± 2.2 mls/24 h; Body Weight ([2]; 60 mpk in-feed, week 4): 599.8 ± 7.4 grams; Food Intake ([2]; 60 mpk in-feed, week 4): 29.5 ± 2.1 grams/24 h; Water Intake ([2]; 60 mpk in-feed, week 4): 46.0 ± 5.7 mls/24 h; Body Weight ([2]; 60 mpk in-feed, week 6): 624.7 ± 9.0 grams; Food Intake ([2]; 60 mpk in-feed, week 6): 32.8 ± 0.9 grams/24 h; Water Intake ([2]; 60 mpk in-feed, week 6): 45.8 ± 4.5 mls/24 h; Body Weight ([2]; 60 mpk in-feed, week 8): 652.0 ± 9.4 grams; Food Intake ([2]; 60 mpk in-feed, week 8): 34.1 ± 1.1 grams/24 h; Water Intake ([2]; 60 mpk in-feed, week 8): 59.2 ± 4.5 mls/24 h; Body Weight ([2]; 60 mpk in-feed, week 10): 678.0 ± 10.9 grams; Body Weight ([2]; 60 mpk in-feed, week 12): 703.7 ± 11.9 grams; Food Intake ([2]; 60 mpk in-feed, week 12): 36.7 ± 1.6 grams/24 h; Water Intake ([2]; 60 mpk in-feed, week 12): 71.5 ± 4.9 mls/24 h; Body Weight ([2]; 60 mpk in-feed, week 14): 712.1 ± 12.7 grams; Body Weight ([2]; 60 mpk in-feed, week 16): 733.8 ± 13.2 grams; Food Intake ([2]; 60 mpk in-feed, week 16): 33.2 ± 1.3 grams/24 h; Water Intake ([2]; 60 mpk in-feed, week 16): 63.7 ± 4.9 mls/24 h; Body Weight ([2]; 60 mpk in-feed, week 18): 746.9 ± 14.1 grams; Body Weight ([2]; 60 mpk in-feed, week 21): 781.1 ± 14.1 grams; Food Intake ([2]; 60 mpk in-feed, week 21): 34.6 ± 1.6 grams/24 h; Water Intake ([2]; 60 mpk in-feed, week 21): 64.5 ± 8.5 mls/24 h; Body Weight ([2]; 60 mpk in-feed, week 24): 808.9 ± 14.6 grams; Food Intake ([2]; 60 mpk in-feed, week 24): 31.2 ± 1.0 grams/24 h; Water Intake ([2]; 60 mpk in-feed, week 24): 59.4 ± 4.7 mls/24 h; Body Weight ([2]; 60 mpk in-feed, week 28): 839.0 ± 14.9 grams; Food Intake ([2]; 60 mpk in-feed, week 28): 31.6 ± 1.0 grams/24 h; Water Intake ([2]; 60 mpk in-feed, week 28): 66.5 ± 6.6 mls/24 h; Body Weight ([2]; 60 mpk in-feed, week −2): 521.3 ± 6.9 grams; Food Intake ([2]; 60 mpk in-feed, week −2): 38.6 ± 1.0 grams/24 h; Water Intake ([2]; 60 mpk in-feed, week −2): 60.8 ± 4.5 mls/24 h; Body Weight ([2]; 200 mpk in-feed, week 1): 568.6 ± 7.4 grams; Food Intake ([2]; 200 mpk in-feed, week 1): 29.0 ± 1.0 grams/24 h; Water Intake ([2]; 200 mpk in-feed, week 1): 30.7 ± 1.9 mls/24 h; Body Weight ([2]; 200 mpk in-feed, week 2): 581.5 ± 7.0 grams; Food Intake ([2]; 200 mpk in-feed, week 2): 29.2 ± 1.1 grams/24 h; Water Intake ([2]; 200 mpk in-feed, week 2): 29.2 ± 2.5 mls/24 h; Body Weight ([2]; 200 mpk in-feed, week 4): 605.9 ± 7.1 grams; Food Intake ([2]; 200 mpk in-feed, week 4): 30.6 ± 1.0 grams/24 h; Water Intake ([2]; 200 mpk in-feed, week 4): 33.4 ± 2.0 mls/24 h; Body Weight ([2]; 200 mpk in-feed, week 6): 631.8 ± 7.7 grams; Food Intake ([2]; 200 mpk in-feed, week 6): 34.3 ± 1.6 grams/24 h; Water Intake ([2]; 200 mpk in-feed, week 6): 39.4 ± 2.8 mls/24 h; Body Weight ([2]; 200 mpk in-feed, week 8): 663.0 ± 7.4 grams; Food Intake ([2]; 200 mpk in-feed, week 8): 31.8 ± 1.2 grams/24 h; Water Intake ([2]; 200 mpk in-feed, week 8): 51.4 ± 4.6 mls/24 h; Body Weight ([2]; 200 mpk in-feed, week 10): 690.6 ± 8.5 grams; Body Weight ([2]; 200 mpk in-feed, week 12): 718.9 ± 9.3 grams; Food Intake ([2]; 200 mpk in-feed, week 12): 35.6 ± 0.9 grams/24 h; Water Intake ([2]; 200 mpk in-feed, week 12): 63.9 ± 4.8 mls/24 h; Body Weight ([2]; 200 mpk in-feed, week 14): 729.3 ± 11.9 grams; Body Weight ([2]; 200 mpk in-feed, week 16): 754.1 ± 11.9 grams; Food Intake ([2]; 200 mpk in-feed, week 16): 33.6 ± 1.5 grams/24 h; Water Intake ([2]; 200 mpk in-feed, week 16): 57.3 ± 5.0 mls/24 h; Body Weight ([2]; 200 mpk in-feed, week 18): 772.3 ± 13.1 grams; Body Weight ([2]; 200 mpk in-feed, week 21): 800.2 ± 13.9 grams; Food Intake ([2]; 200 mpk in-feed, week 21): 35.6 ± 0.9 grams/24 h; Water Intake ([2]; 200 mpk in-feed, week 21): 58.1 ± 3.6 mls/24 h; Body Weight ([2]; 200 mpk in-feed, week 24): 825.7 ± 14.7 grams; Food Intake ([2]; 200 mpk in-feed, week 24): 31.7 ± 1.2 grams/24 h; Water Intake ([2]; 200 mpk in-feed, week 24): 61.8 ± 3.5 mls/24 h; Body Weight ([2]; 200 mpk in-feed, week 28): 848.1 ± 16.4 grams; Food Intake ([2]; 200 mpk in-feed, week 28): 33.3 ± 1.2 grams/24 h; Water Intake ([2]; 200 mpk in-feed, week 28): 70.5 ± 5.6 mls/24 h; Body Weight ([2]; 200 mpk in-feed, week −2): 520.6 ± 6.4 grams; Food Intake ([2]; 200 mpk in-feed, week −2): 37.7 ± 1.4 grams/24 h; Water Intake ([2]; 200 mpk in-feed, week −2): 59.1 ± 5.9 mls/24 h; Body Weight ([2]; 400 mpk in-feed, week 1): 568.3 ± 6.5 grams; Food Intake ([2]; 400 mpk in-feed, week 1): 30.0 ± 1.6 grams/24 h; Water Intake ([2]; 400 mpk in-feed, week 1): 37.6 ± 2.8 mls/24 h; Body Weight ([2]; 400 mpk in-feed, week 2): 582.8 ± 6.5 grams; Food Intake ([2]; 400 mpk in-feed, week 2): 32.0 ± 1.2 grams/24 h; Water Intake ([2]; 400 mpk in-feed, week 2): 40.3 ± 3.1 mls/24 h; Body Weight ([2]; 400 mpk in-feed, week 4): 604.1 ± 7.2 grams; Food Intake ([2]; 400 mpk in-feed, week 4): 33.6 ± 0.9 grams/24 h; Water Intake ([2]; 400 mpk in-feed, week 4): 45.0 ± 3.7 mls/24 h; Body Weight ([2]; 400 mpk in-feed, week 6): 631.8 ± 8.9 grams; Food Intake ([2]; 400 mpk in-feed, week 6): 34.6 ± 1.2 grams/24 h; Water Intake ([2]; 400 mpk in-feed, week 6): 49.9 ± 4.8 mls/24 h; Body Weight ([2]; 400 mpk in-feed, week 8): 654.5 ± 10.6 grams; Food Intake ([2]; 400 mpk in-feed, week 8): 34.2 ± 1.4 grams/24 h; Water Intake ([2]; 400 mpk in-feed, week 8): 62.2 ± 5.6 mls/24 h; Body Weight ([2]; 400 mpk in-feed, week 10): 676.5 ± 12.7 grams; Body Weight ([2]; 400 mpk in-feed, week 12): 704.8 ± 12.8 grams; Food Intake ([2]; 400 mpk in-feed, week 12): 35.7 ± 0.7 grams/24 h; Water Intake ([2]; 400 mpk in-feed, week 12): 63.5 ± 5.3 mls/24 h; Body Weight ([2]; 400 mpk in-feed, week 14): 704.4 ± 14.6 grams; Body Weight ([2]; 400 mpk in-feed, week 16): 739.3 ± 15.0 grams; Food Intake ([2]; 400 mpk in-feed, week 16): 33.6 ± 0.7 grams/24 h; Water Intake ([2]; 400 mpk in-feed, week 16): 63.0 ± 3.9 mls/24 h; Body Weight ([2]; 400 mpk in-feed, week 18): 757.9 ± 16.9 grams; Body Weight ([2]; 400 mpk in-feed, week 21): 791.2 ± 18.4 grams; Food Intake ([2]; 400 mpk in-feed, week 21): 36.0 ± 1.2 grams/24 h; Water Intake ([2]; 400 mpk in-feed, week 21): 59.3 ± 4.4 mls/24 h; Body Weight ([2]; 400 mpk in-feed, week 24): 823.8 ± 18.9 grams; Food Intake ([2]; 400 mpk in-feed, week 24): 33.3 ± 1.5 grams/24 h; Water Intake ([2]; 400 mpk in-feed, week 24): 67.2 ± 4.8 mls/24 h; Body Weight ([2]; 400 mpk in-feed, week 28): 852.1 ± 19.5 grams; Food Intake ([2]; 400 mpk in-feed, week 28): 32.1 ± 1.7 grams/24 h; Water Intake ([2]; 400 mpk in-feed, week 28): 80.1 ± 4.6 mls/24 h; Body Weight ([2]; 400 mpk in-feed, week −2): 522.3 ± 7.1 grams; Food Intake ([2]; 400 mpk in-feed, week −2): 37.7 ± 1.1 grams/24 h; Water Intake ([2]; 400 mpk in-feed, week −2): 57.2 ± 4.9 mls/24 h; effect on body weight (BW) ([2]; in-feed for 28 weeks): no significant effect; effect on food intake (FI) ([2]; in-feed for 28 weeks): no significant effect; effect on water intake (WI) ([2]; in-feed for 28 weeks): no significant effect
